Measurements as given in publication PMC8229129, “Local Colonic Administration of a Serine Protease Inhibitor Improves Post-Inflammatory Visceral Hypersensitivity in Rats” (Pharmaceutics, 2021).
Values joined by “and” are separate entries in the source; they are usually repeats but may differ in a detail not shown here. Equal entries are not always repeated.

What was measured:
tryptase = tested on: tryptase; parameters: method as in PMID 29911328; conditions: in vitro; cited from earlier work
colonic mucosal damage = experiment: Macroscopic score of mucosal damage; assay type: in vivo, Sprague–Dawley rats; conditions: for Macroscopy, Day of VMR: score 0–10, mean ± SEM, n = 8
Protocol: After VMR and compliance measurements, the rat was sacrificed by exsanguination under pentobarbital anesthesia (45 mg/kg, i.p.). The colon was excised, rinsed with Krebs solution, opened along the mesenteric border, and evaluated visually for the presence of mucosal damage using a previously validated scoring system (total score 0–10, Supplementary Table S2).

uPA = tested on: uPA; parameters: method as in PMID 29911328; conditions: in vitro; cited from earlier work
[1] = tested on: colonic mucosal inflammation; experiment: Colonoscopic inflammatory score; assay type: in vivo, Sprague–Dawley rats; conditions: for Colonoscopy, Day of VMR: score 0–19, mean ± SEM, n = 8
Protocol: An in vivo colonoscopy was performed to assess the presence and extent of TNBS-induced colitis, as previously described. Briefly, rats were anesthetized (ketamine/xylazine, 35/5 mg/kg, i.p.) and placed in a supine position. The lubricated tip of a pediatric upper gastrointestinal endoscope (Olympus GIF-N30) was carefully introduced into the colorectum and advanced until the hepatic flexure was reached. Then, the endoscope was slowly withdrawn while assessing the mucosal damage using a validated and standardized scoring system (Supplementary Table S1). In brief, a total inflammatory score (0–19) was calculated based on the extent of ulcerations, as well as on the presence of edema, bleeding, and colonic stenosis.

chronic colitis = tested on: chronic colitis; parameters: method as in doi:10.1016/S0016-5085(16)33277-2; conditions: murine CD4+CD25−CD62L+ T-cell transfer model for chronic colitis; cited from earlier work
[2] = Pharmacokinetics after intravenous administration (plasma, LC-MS/MS, PKSolver two-compartment model); assay type: in vivo, Sprague–Dawley rats; conditions: rat, i.v. 1 mg/kg
Protocol: (§1) To evaluate the pharmacokinetic properties of UAMC-00050, it was administered in male Sprague–Dawley rats (200–225 g) either colonically (5 mg/kg, in a volume of 200 µL 5% DMSO solution) or intravenously (1 mg/kg in a volume of 200 µL 5% DMSO solution). Plasma samples were collected after 5, 15, 30, 45, 60, 90, 120, and 180 min via the tail vein and stored at −80 °C until analysis.
(§2) Sample preparation and analysis of plasma samples consisted of protein precipitation followed by direct injection in a liquid chromatography–tandem mass spectrometry (LC-MS/MS) instrument. Briefly, 100 µL of plasma was spiked with 20 µL of nordazepam-D5 used as internal standard for quantification (yielding in a final concentration of 485 ng/mL) and afterwards 180 µL of acetonitrile was added to precipitate proteins. Subsequently, the samples were vortexed for 2.5 min at 2000× g and centrifuged for 5 min at 10,000× g. In a next step, 100 µL of the supernatant was transferred to a 0.20 µm centrifugal filter to remove remaining particles. After centrifugation for 5 min at 10,000× g, the remaining filtrate was transferred to an autosampler vial ready to be analyzed with LC-MS/MS. A seven-level point calibration curve with final concentrations ranging between 5 and 1000 ng/mL and a curve weighting factor of 1/x^2 was prepared in blank mouse plasma using different working solution standards of UAMC-00050 and a fixed amount of internal standard. The lower limit of quantification of the method was 5 ng/mL.
(§3) A gradient was applied as follows: 0–0.5 min: 5% B; 0.5–10 min 5–100% B; 10–12 min 100% B; and 12–12.1 min 5% B. The total run time was 18 min and the injection volume was set to 5 µL. Detection and quantification of UAMC-00050 were performed with an Agilent 6410 triple quadrupole MS system with an electrospray interface (ESI) operating in positive ionization mode. The following source parameters were applied: gas temperature 350 °C, gas flow 10 L/min, nebulizer 35 psi, and capillary voltage 4000 V. Compound-dependent MS parameters are summarized in Table 1. The most abundant transition of UAMC-00050 was used as quantifier and the other transitions were used for confirmation (qualifiers). For compound confirmation, the following criteria were used: the quantifier/qualifier ratio should fall within ±15% of the ratio observed in calibrators and the relative retention time should fall within 2.5% of the values observed in the calibrators.
All data are presented as mean ± SEM or as median (IQR). Pharmacokinetic analysis and modeling of the plasma concentration–time data was performed using PKSolver. Other statistical analysis and data visualization processes were performed using R software (version 4.0.3) and GraphPad Prism (version 7.04). The nominal significance level was 0.05 for all tests. The development of body weight, VMR results, and colonic compliance were assessed with generalized estimating equations (GEE) using an unstructured working correlation matrix, followed by Fisher’s least significant difference (LSD) post hoc test on prespecified pairwise comparisons of interest. Inflammatory parameters were analyzed using two-way analysis of variance (ANOVA), followed by Student–Newman–Keuls (SNK) post hoc testing when applicable. To evaluate the differences in proteolytic activities between control, post-colitis, treated, and untreated rats, a two-way ANOVA was conducted. Main effects were tested on split files with a Mann–Whitney U test with Bonferroni correction. To assess correlations between specific fecal or colonic proteolytic activities and inflammatory parameters, the pairwise comparisons of interest were determined a priori. Spearman’s rank order correlation coefficient was used and the Holm–Bonferroni method was applied to correct for multiplicity.

[3] = Plasma concentrations after intracolonic administration (LC-MS/MS); assay type: in vivo, Sprague–Dawley rats; conditions: rat; for Plasma concentration: intracolonic 5 mg/kg
Protocol: as §1, §2, §3

[4] = control rats, 5.0 mg/kg intracolonic
[5] = post-colitis rats, 0.1 mg/kg intracolonic
[6] = post-colitis rats, 1.0 mg/kg intracolonic
[7] = post-colitis rats, 2.5 mg/kg intracolonic
[8] = post-colitis rats, 5.0 mg/kg intracolonic
[9] = single intracolonic administration, control and post-colitis rats

For `CC(=O)Nc1ccc(OP(=O)(Oc2ccc(NC(C)=O)cc2)C(Cc2ccc(N=C(N)N)cc2)NC(=O)OCc2ccccc2)cc1.Cl` (stereo not shown) [UAMC-00050], the inhibition of tryptase (tryptase) is given as “efficiently inhibits”, the “Macroscopy, Day of VMR” value (colonic mucosal damage; [4]) is given as 0.0 ± 0.0 and the “Macroscopy, Day of VMR” value (colonic mucosal damage; [5]) is given as 0.0 ± 0.0. For the same compound, the “Macroscopy, Day of VMR” value (colonic mucosal damage; [6]) was 0.0 ± 0.0, the “Macroscopy, Day of VMR” value (colonic mucosal damage; [7]) was 0.0 ± 0.0 and the “Macroscopy, Day of VMR” value (colonic mucosal damage; [8]) was 0.0 ± 0.0. The “Effect on macroscopic evaluation of mucosal damage” value (colonic mucosal damage; [9]) was “no effect”, the “inhibition of uPA” value (uPA) was “efficiently inhibits” and the “Colonoscopy, Day of VMR” value [1, 4] was 0.0 ± 0.0. For the same compound, the “Colonoscopy, Day of VMR” value [1, 5] was 0.0 ± 0.0, the “Colonoscopy, Day of VMR” value [1, 6] was 0.0 ± 0.0 and the “Colonoscopy, Day of VMR” value [1, 7] was 0.0 ± 0.0. For the same compound, the “Colonoscopy, Day of VMR” value [1, 8] was 0.0 ± 0.0, the “Effect on colonoscopic inflammatory scores” value [1, 9] was “no effect” and the Effect on inflammation (chronic colitis) was “anti-inflammatory effects”. For the same compound, the k12 ([2]; distribution to the peripheral compartment) was 0.028 min⁻¹, the k21 ([2]; redistribution from peripheral to central compartment) was 0.014 min⁻¹ and the A ([2]; two-compartment model) was 500.7 ng/mL. For the same compound, the “AUC 0-inf” value ([2]; two-compartment model) was 5915 ng·min/mL, the “AUC 0-t” value ([2]; two-compartment model) was 5422 ng·min/mL and the AUMC ([2]; two-compartment model) was 200,489 ng/mL*min2. It also gave an Alpha ([2]; two-compartment model) of 0.119 min⁻¹, a B ([2]; two-compartment model) of 17.9 ng/mL and a Beta ([2]; two-compartment model) of 0.010 min⁻¹. The C0 ([2]; two-compartment model) was 518.7 ng/mL, the CL ([2]; two-compartment model) was 0.0005072 (mg)/(ng/mL)/min and the CL2 ([2]; two-compartment model) was 0.0001621 (mg)/(ng/mL)/min. For the same compound, the MRT ([2]; two-compartment model) was 33.9 min, the V ([2]; two-compartment model) was 0.006 (mg)/(ng/mL) and the V2 ([2]; two-compartment model) was 0.011 (mg)/(ng/mL). The Vss ([2]; two-compartment model) was 0.017 mg/(ng/mL), the k10 ([2]; two-compartment model) was 0.087 min⁻¹ and the k12 ([2]; two-compartment model) was 0.028 min⁻¹. For the same compound, the k21 ([2]; two-compartment model) was 0.014 min⁻¹, the t1/2Beta ([2]; two-compartment model) was 66.5 min and the t1/2Alpha ([2]; two-compartment model, 1 mg/kg) was 5.800 min and 5.8 min. For the same compound, the “Plasma concentration after intracolonic administration as share of plasma concentration after intravenous administration” value ([3]; 5 min after administration, 5 mg/kg intracolonic versus 1 mg/kg intravenous) was 5.4%, the Plasma concentration ([3]; 30–180 min after administration, lower limit of quantification 5 ng/mL) was “below the lower limit of quantification” and the Plasma concentration ([3]; 5 min after administration, mean ± SEM, n = 5) was 14.1 ± 2.9 ng/mL. For the same compound, the Plasma concentration ([3]; 15 min after administration, mean ± SEM, n = 5) was 10.3 ± 1.3 ng/mL.
